Measured values: patent publication US20260166128A1, “HUMAN AMYLIN ANALOG, AND DERIVATIVE THEREOF AND USE THEREOF” (priority 2022, published 2026)
Numbered stars: 1 amine (or outer) side, 2 acyl side, 3 side chain; on linkers, the order of the positions; unused ones are H or OH. Bridge positions count the residues as written; N and C are the ends. Square brackets hold non-standard residues; d marks the D form. Side chains are listed from the residue outwards. Peptide text beside a SMILES is read from it. * marks the point of attachment. C20 diacid = O=C(O)CCCCCCCCCCCCCCCCCCC(=O)*; γGlu = O=C(O)[C@H](CCC(=O)[*:2])N[*:1]; βAsp = O=C(O)[C@H](CC(=O)[*:2])N[*:1]; Hyp = O=C(O)[C@@H]1C[C@@H](O)CN1; Dap = NC[C@H](N)C(=O)O; AEEA = NCCOCCOCC(=O)O; Inp = O=C(O)C1CCNCC1

molecular target: T1, human amylin receptor (Homo sapiens, UniProt O60896+P30988); assay: Luciferase assay of amylin derivatives in amylin receptor/CRE-luc CHO cell line; assay type: cell-based; details: CHO-K1/Ga15/AMY3 CRE-luc cells, 24 hours incubation, F12 medium containing 10% FBS; read-out: EC50
T1 construct: host or cells: CHO-K1/Ga15/AMY3 cells, further stably transfected with a CRE-luciferase plasmid
T1 sequence (P30988 25-474): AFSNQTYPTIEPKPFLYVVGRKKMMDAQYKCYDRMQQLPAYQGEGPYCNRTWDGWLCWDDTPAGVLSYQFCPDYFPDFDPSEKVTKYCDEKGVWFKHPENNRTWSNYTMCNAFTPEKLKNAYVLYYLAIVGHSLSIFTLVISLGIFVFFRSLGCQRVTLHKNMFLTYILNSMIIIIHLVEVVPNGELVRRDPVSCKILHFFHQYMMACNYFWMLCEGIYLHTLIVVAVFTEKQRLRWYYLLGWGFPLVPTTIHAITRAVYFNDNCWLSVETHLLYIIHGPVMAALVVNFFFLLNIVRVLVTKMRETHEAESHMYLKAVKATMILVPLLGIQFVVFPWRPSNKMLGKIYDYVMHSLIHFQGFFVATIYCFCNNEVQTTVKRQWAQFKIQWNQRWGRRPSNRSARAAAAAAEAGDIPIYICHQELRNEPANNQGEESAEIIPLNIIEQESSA
T1 sequence (O60896 24-148 partner): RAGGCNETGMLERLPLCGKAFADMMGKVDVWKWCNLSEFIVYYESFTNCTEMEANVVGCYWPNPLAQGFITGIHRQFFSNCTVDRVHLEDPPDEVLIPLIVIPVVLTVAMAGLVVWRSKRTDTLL
Experimental: The experiment was intended to detect the activity or efficacy of the amylin derivatives on a human amylin receptor in vitro by luciferase assay.
50 μL of growth medium (F12 medium containing 10% FBS) was added into each well of a white 96-well plate, and the stably transfected amylin/CRE-lue CHO cells were inoculated into the white 96-well plate at a density of about 20,000 cells/well for activity determination.

| Compound | EC50 |
| --- | --- |
| CC[C@H](C)[C@H](NC(=O)[C@@H]1CCCN1C(=O)CNC(=O)[C@H](CCCCNC(=O)CC[C@H](NC(=O)CCCCCCCCCCCCCCCCCCC(=O)O)C(=O)O)NC(=O)[C@H](CC(N)=O)NC(=O)[C@H](CC(N)=O)NC(=O)[C@H](CO)NC(=O)[C@H](CO)NC(=O)[C@H](Cc1c[nH]cn1)NC(=O)[C@H](CCCNC(=N)N)NC(=O)[C@H](CC(C)C)NC(=O)[C@H](Cc1ccccc1)NC(=O)[C@H](CC(=O)O)NC(=O)[C@H](C)NC(=O)[C@H](CC(C)C)NC(=O)[C@H](CCCNC(=N)N)NC(=O)[C@H](CCC(N)=O)NC(=O)[C@@H](NC(=O)[C@H](C)NC(=O)[C@@H]1CSSC[C@H](NC(=O)[C@@H](N)CCCNC(=N)N)C(=O)N[C@@H](CC(N)=O)C(=O)N[C@@H]([C@@H](C)O)C(=O)N[C@@H](C)C(=O)N[C@@H]([C@@H](C)O)C(=O)N1)[C@@H](C)O)C(=O)N[C@@H](CC(C)C)C(=O)N1CCC[C@H]1C(=O)N1CCC[C@H]1C(=O)N[C@H](C(=O)N[C@@H](CC(N)=O)C(=O)N[C@H](C(=O)NCC(=O)N[C@@H](CO)C(=O)N[C@@H](CC(N)=O)C(=O)N[C@H](C(=O)N1C[C@H](O)C[C@H]1C(N)=O)[C@@H](C)O)C(C)C)[C@@H](C)O [PD082] (H-RCNTATCATQRLADFLRHSSNNK([γGlu-C20 diacid])GPILPPTNVGSNT[Hyp]-NH2; disulfide 2-7) | 0.038 nM |
| CC[C@H](C)[C@H](NC(=O)[C@H](CCCCNC(=O)CC[C@H](NC(=O)CCCCCCCCCCCCCCCCCCC(=O)O)C(=O)O)NC(=O)CNC(=O)[C@H](CC(C)C)NC(=O)[C@H](CC(N)=O)NC(=O)[C@H](CC(N)=O)NC(=O)[C@H](CO)NC(=O)[C@H](CO)NC(=O)[C@H](Cc1c[nH]cn1)NC(=O)[C@H](CCCNC(=N)N)NC(=O)[C@H](CC(C)C)NC(=O)[C@H](Cc1ccccc1)NC(=O)[C@H](CC(=O)O)NC(=O)[C@H](C)NC(=O)[C@H](CC(C)C)NC(=O)[C@H](CCCNC(=N)N)NC(=O)[C@H](CCC(N)=O)NC(=O)[C@@H](NC(=O)[C@H](C)NC(=O)[C@@H]1CSSC[C@H](NC(=O)[C@@H](N)CCCNC(=N)N)C(=O)N[C@@H](CC(N)=O)C(=O)N[C@@H]([C@@H](C)O)C(=O)N[C@@H](C)C(=O)N[C@@H]([C@@H](C)O)C(=O)N1)[C@@H](C)O)C(=O)N[C@@H](CC(C)C)C(=O)N1CCC[C@H]1C(=O)N1CCC[C@H]1C(=O)N[C@H](C(=O)N[C@@H](CC(N)=O)C(=O)N[C@H](C(=O)NCC(=O)N[C@@H](CO)C(=O)N[C@@H](CC(N)=O)C(=O)N[C@H](C(=O)N1C[C@H](O)C[C@H]1C(N)=O)[C@@H](C)O)C(C)C)[C@@H](C)O [PD102] (H-RCNTATCATQRLADFLRHSSNNLGK([γGlu-C20 diacid])ILPPTNVGSNT[Hyp]-NH2; disulfide 2-7) | 0.033 nM |
| CC[C@H](C)[C@H](NC(=O)[C@@H]1CCCN1C(=O)CNC(=O)[C@H](CC(C)C)NC(=O)[C@H](CC(N)=O)NC(=O)[C@H](CC(N)=O)NC(=O)[C@H](CO)NC(=O)[C@H](CCCCNC(=O)CC[C@H](NC(=O)CCCCCCCCCCCCCCCCCCC(=O)O)C(=O)O)NC(=O)[C@H](Cc1c[nH]cn1)NC(=O)[C@H](CCCNC(=N)N)NC(=O)[C@H](CC(C)C)NC(=O)[C@H](Cc1ccccc1)NC(=O)[C@H](CC(=O)O)NC(=O)[C@H](C)NC(=O)[C@H](CC(C)C)NC(=O)[C@H](CCCNC(=N)N)NC(=O)[C@H](CCC(N)=O)NC(=O)[C@@H](NC(=O)[C@H](C)NC(=O)[C@@H]1CSSC[C@H](NC(=O)[C@@H](N)CCCNC(=N)N)C(=O)N[C@@H](CC(N)=O)C(=O)N[C@@H]([C@@H](C)O)C(=O)N[C@@H](C)C(=O)N[C@@H]([C@@H](C)O)C(=O)N1)[C@@H](C)O)C(=O)N[C@@H](CC(C)C)C(=O)N1CCC[C@H]1C(=O)N1CCC[C@H]1C(=O)N[C@H](C(=O)N[C@@H](CC(N)=O)C(=O)N[C@H](C(=O)NCC(=O)N[C@@H](CO)C(=O)N[C@@H](CC(N)=O)C(=O)N[C@H](C(=O)N1C[C@H](O)C[C@H]1C(N)=O)[C@@H](C)O)C(C)C)[C@@H](C)O [PD098] (H-RCNTATCATQRLADFLRHK([γGlu-C20 diacid])SNNLGPILPPTNVGSNT[Hyp]-NH2; disulfide 2-7) | 0.077 nM |

Further lines, results first:

| EC50 | Compound |
| --- | --- |
| 0.04 nM | CC[C@H](C)[C@H](NC(=O)[C@@H]1CCCN1C(=O)[C@H](CCCCN)NC(=O)[C@H](CC(C)C)NC(=O)[C@H](CC(N)=O)NC(=O)[C@H](CC(N)=O)NC(=O)[C@H](CO)NC(=O)[C@H](CO)NC(=O)[C@H](Cc1c[nH]cn1)NC(=O)[C@H](CCCNC(=N)N)NC(=O)[C@H](CC(C)C)NC(=O)[C@H](Cc1ccccc1)NC(=O)[C@H](CC(=O)O)NC(=O)[C@H](C)NC(=O)[C@H](CC(C)C)NC(=O)[C@H](CCCNC(=N)N)NC(=O)[C@H](CCC(N)=O)NC(=O)[C@@H](NC(=O)[C@H](C)NC(=O)[C@@H]1CSSC[C@H](NC(=O)[C@H](CCCCN)NC(=O)COCCOCCNC(=O)COCCOCCNC(=O)C[C@H](NC(=O)CCCCCCCCCCCCCCCCCCC(=O)O)C(=O)O)C(=O)N[C@@H](CC(N)=O)C(=O)N[C@@H]([C@@H](C)O)C(=O)N[C@@H](C)C(=O)N[C@@H]([C@@H](C)O)C(=O)N1)[C@@H](C)O)C(=O)N[C@@H](CC(C)C)C(=O)N1CCC[C@H]1C(=O)N1CCC[C@H]1C(=O)N[C@H](C(=O)N[C@@H](CC(N)=O)C(=O)N[C@H](C(=O)NCC(=O)N[C@@H](CO)C(=O)N[C@@H](CC(N)=O)C(=O)N[C@H](C(=O)N1C[C@H](O)C[C@H]1C(N)=O)[C@@H](C)O)C(C)C)[C@@H](C)O [PD183] ({C20 diacid-βAsp-AEEA-AEEA}-KCNTATCATQRLADFLRHSSNNLKPILPPTNVGSNT[Hyp]-NH2; disulfide 2-7) |
| 0.041 nM | CC[C@H](C)[C@H](NC(=O)[C@@H]1CCCN1C(=O)[C@H](CN)NC(=O)[C@H](CC(C)C)NC(=O)[C@H](CC(N)=O)NC(=O)[C@H](CC(N)=O)NC(=O)[C@H](CO)NC(=O)[C@H](CO)NC(=O)[C@H](Cc1c[nH]cn1)NC(=O)[C@H](CCCNC(=N)N)NC(=O)[C@H](CC(C)C)NC(=O)[C@H](Cc1ccccc1)NC(=O)[C@H](CC(=O)O)NC(=O)[C@H](C)NC(=O)[C@H](CC(C)C)NC(=O)[C@H](CCCNC(=N)N)NC(=O)[C@H](CCC(N)=O)NC(=O)[C@@H](NC(=O)[C@H](C)NC(=O)[C@@H]1CSSC[C@H](NC(=O)[C@H](CCCCN)NC(=O)CC[C@H](NC(=O)CCCCCCCCCCCCCCCCCCC(=O)O)C(=O)O)C(=O)N[C@@H](CC(N)=O)C(=O)N[C@@H]([C@@H](C)O)C(=O)N[C@@H](C)C(=O)N[C@@H]([C@@H](C)O)C(=O)N1)[C@@H](C)O)C(=O)N[C@@H](CC(C)C)C(=O)N1CCC[C@H]1C(=O)N1CCC[C@H]1C(=O)N[C@H](C(=O)N[C@@H](CC(N)=O)C(=O)N[C@H](C(=O)NCC(=O)N[C@@H](CO)C(=O)N[C@@H](CC(N)=O)C(=O)N[C@H](C(=O)N1CCC[C@H]1C(N)=O)[C@@H](C)O)C(C)C)[C@@H](C)O [PD168] ({C20 diacid-γGlu}-KCNTATCATQRLADFLRHSSNNL[Dap]PILPPTNVGSNTP-NH2; disulfide 2-7 (inferred)) |
| 0.03 nM | CC[C@H](C)[C@H](NC(=O)[C@@H]1CCCN1C(=O)CNC(=O)[C@H](CC(C)C)NC(=O)[C@H](CC(N)=O)NC(=O)[C@H](CCCCNC(=O)COCCOCCNC(=O)COCCOCCNC(=O)CC[C@H](NC(=O)CCCCCCCCCCCCCCCCCCC(=O)O)C(=O)O)NC(=O)[C@H](CO)NC(=O)[C@H](CO)NC(=O)[C@H](Cc1c[nH]cn1)NC(=O)[C@H](CCCNC(=N)N)NC(=O)[C@H](CC(C)C)NC(=O)[C@H](Cc1ccccc1)NC(=O)[C@H](CC(=O)O)NC(=O)[C@H](C)NC(=O)[C@H](CC(C)C)NC(=O)[C@H](CCCNC(=N)N)NC(=O)[C@H](CCC(N)=O)NC(=O)[C@@H](NC(=O)[C@H](C)NC(=O)[C@@H]1CSSC[C@H](NC(=O)[C@@H](N)CCCNC(=N)N)C(=O)N[C@@H](CC(N)=O)C(=O)N[C@@H]([C@@H](C)O)C(=O)N[C@@H](C)C(=O)N[C@@H]([C@@H](C)O)C(=O)N1)[C@@H](C)O)C(=O)N[C@@H](CC(C)C)C(=O)N1CCC[C@H]1C(=O)N1CCC[C@H]1C(=O)N[C@H](C(=O)N[C@@H](CC(N)=O)C(=O)N[C@H](C(=O)NCC(=O)N[C@@H](CO)C(=O)N[C@@H](CC(N)=O)C(=O)N[C@H](C(=O)N1C[C@H](O)C[C@H]1C(N)=O)[C@@H](C)O)C(C)C)[C@@H](C)O [PD091] (H-RCNTATCATQRLADFLRHSSK([AEEA-AEEA-γGlu-C20 diacid])NLGPILPPTNVGSNT[Hyp]-NH2; disulfide 2-7) |
| 0.087 nM | CC[C@H](C)[C@H](NC(=O)[C@@H]1CCCN1C(=O)[C@H](CCCCN)NC(=O)[C@H](CC(C)C)NC(=O)[C@H](CC(N)=O)NC(=O)[C@H](CC(N)=O)NC(=O)[C@H](CO)NC(=O)[C@H](CO)NC(=O)[C@H](Cc1c[nH]cn1)NC(=O)[C@H](CCCNC(=N)N)NC(=O)[C@H](CC(C)C)NC(=O)[C@H](Cc1ccccc1)NC(=O)[C@H](CC(=O)O)NC(=O)[C@H](C)NC(=O)[C@H](CC(C)C)NC(=O)[C@H](CCCNC(=N)N)NC(=O)[C@H](CCC(N)=O)NC(=O)[C@@H](NC(=O)[C@H](C)NC(=O)[C@@H]1CSSC[C@H](NC(=O)[C@H](CCCCN)NC(=O)C2CCN(C(=O)COCCOCCNC(=O)COCCOCCNC(=O)CCCCCCCCCCCCCCCCCCC(=O)O)CC2)C(=O)N[C@@H](CC(N)=O)C(=O)N[C@@H]([C@@H](C)O)C(=O)N[C@@H](C)C(=O)N[C@@H]([C@@H](C)O)C(=O)N1)[C@@H](C)O)C(=O)N[C@@H](CC(C)C)C(=O)N1CCC[C@H]1C(=O)N1CCC[C@H]1C(=O)N[C@H](C(=O)N[C@@H](CC(N)=O)C(=O)N[C@H](C(=O)NCC(=O)N[C@@H](CO)C(=O)N[C@@H](CC(N)=O)C(=O)N[C@H](C(=O)N1CCC[C@H]1C(N)=O)[C@@H](C)O)C(C)C)[C@@H](C)O [PD192] ({C20 diacid-AEEA-AEEA-Inp}-KCNTATCATQRLADFLRHSSNNLKPILPPTNVGSNTP-NH2; disulfide 2-7 (inferred)) |
